# Laboratory results taken from US6342213B1, “Methods for treating non-suturable wounds by use of cyanoacrylate adhesives” (MedLogic Global Corporation, priority 1992, dated 2002).
# What was measured:
# [1] = used as suture supplements or internally; site of application; cited from earlier work
# [2] = test system: human skin tissue; experiment: Bonding of human skin tissue, histotoxicity/cytotoxicity
smiles,measurement,setting,value
"C=C(C#N)C(=O)OCCCC [n-butyl cyanoacrylate, n-butyl-2-cyanoacrylate]",Time after application at which polymeric residue was still observed by histological examination,[1],≤ 12 months
same,Histotoxicity or cytotoxicity on bonding human skin tissue,[2],without causing histoxicity or cytotoxicity
